Bridge positions count the residues as written; N and C are the ends. Square brackets hold non-standard residues; d marks the D form. Ends that are not written are not given here. Peptide text beside a SMILES is read from it. Dab = NCC[C@H](N)C(=O)O

Test [1] concerns the target T1, μ-receptor (Rattus norvegicus, UniProt P33535).
T1 construct: from tissue; host or cells: rat brain (homogenate / synaptic plasma membranes, whole brain without cerebellum)
As to the kind of experiment: (3H)-DAMGO displacement receptor assay. In kind it is binding. Particulars: LIGAND program; for IC50: displacement of (3H)-DAMGO specific binding, radioligand about 24 x 10^-10 M. As for the experimental part:
(§1) In the experiments noted in FIGS. 3 and 4 and in Table 1 (^3 H)-(D-Ala^2,MePhe^4,Gly-ol^5)-enkephalin (DAGO or DAMGO) and (^3 H)-(D-Ala^2,D-Leu^5)-enkephalin (DADL) purchased from Amersham (Buckinghamshire, England) were used as radioligands in a binding assay performed as in Reg.
(§2) The peptides were employed for both receptor tests and bioassays on electrically stimulated guinea pig ileum strips (GPI-tests). The receptor assays were performed in the same manner as above with DAMGO as a radioligand to the μ-receptor. In the assays (^3 H)-DAMGO specific binding was displaced by the different tested substances (10^-5 M to 10^-10 M). […] Ups. […] The magnitude of activity in relation to a standard compound, normorphine was recorded.

Test [2] deals with T2, δ-receptor ((3H)-DADL binding site) (Rattus norvegicus, UniProt P33533).
T2 construct: from tissue; host or cells: rat brain homogenate
T2 sequence (P33533 whole entry): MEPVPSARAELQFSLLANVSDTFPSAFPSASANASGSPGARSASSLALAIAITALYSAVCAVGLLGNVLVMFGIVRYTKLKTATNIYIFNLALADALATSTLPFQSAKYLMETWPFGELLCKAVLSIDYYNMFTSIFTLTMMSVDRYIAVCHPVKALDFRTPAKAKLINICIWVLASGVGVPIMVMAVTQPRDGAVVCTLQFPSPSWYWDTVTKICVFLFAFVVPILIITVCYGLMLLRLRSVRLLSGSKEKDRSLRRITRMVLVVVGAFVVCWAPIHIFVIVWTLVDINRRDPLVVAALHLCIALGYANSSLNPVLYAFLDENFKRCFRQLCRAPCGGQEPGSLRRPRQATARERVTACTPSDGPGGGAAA
As to the kind of experiment: (3H)-DADL binding assay, rat brain homogenates. Conditions: duplicate determination, one site model, EBDA/LIGAND.
Text: as §1
(§3) In the publication β-Casomorphins and Related Peptides Ed.

In test [3] the target is T3, μ-receptor ((3H)-DAGO binding site) (Rattus norvegicus, UniProt P33535).
T3 construct: from tissue; host or cells: rat brain (homogenate / synaptic plasma membranes, whole brain without cerebellum)
T3 sequence (P33535 whole entry): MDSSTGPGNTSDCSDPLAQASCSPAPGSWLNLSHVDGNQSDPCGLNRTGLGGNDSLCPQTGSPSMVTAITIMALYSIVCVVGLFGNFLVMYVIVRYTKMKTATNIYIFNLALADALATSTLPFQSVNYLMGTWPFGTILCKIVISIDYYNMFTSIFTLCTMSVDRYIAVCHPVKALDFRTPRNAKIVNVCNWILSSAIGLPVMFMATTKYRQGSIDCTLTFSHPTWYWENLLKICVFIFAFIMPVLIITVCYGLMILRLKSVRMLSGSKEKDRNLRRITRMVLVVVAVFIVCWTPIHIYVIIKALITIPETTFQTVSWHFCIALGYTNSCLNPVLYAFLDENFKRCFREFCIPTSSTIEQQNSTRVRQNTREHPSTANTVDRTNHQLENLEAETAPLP
As to the kind of experiment: (3H)-DAGO binding assay, rat brain homogenates. Particulars: duplicate determination, one site model, EBDA/LIGAND.
Text: as §1, §3

The test system of test [4] is electrically stimulated guinea pig ileum strips. Conditions: relative to standard compound normorphine = 1. As for the experimental part: as §2

T1 sequence (P33535 whole entry): as above

As usually defined, the IC50 is the concentration at which inhibition is half-maximal. For `CC(C)C[C@@H]1NC(=O)[C@H](Cc2ccccc2)NC(=O)[C@@H](NC(=O)[C@@H](N)Cc2ccc(O)cc2)CSSC[C@@H](C(=O)O)NC1=O` (H-YCFLC-OH; disulfide 2-5), the IC50 in test [1] is 0.24 nM. For the compound `CC(C)C[C@@H]1NC(=O)[C@H](Cc2ccccc2)NC(=O)[C@@H](NC(=O)[C@@H](N)Cc2ccc(O)cc2)CCCCNC(=O)[C@H](CCC(=O)O)NC1=O` (H-YKFLE; lactam 2-C), in test [1], the IC50 came to 0.055 nM. Take `CC(C)C[C@@H]1NC(=O)[C@H](Cc2ccccc2)NC(=O)[C@@H](NC(=O)[C@@H](N)Cc2ccc(O)cc2)CCNC(=O)[C@H](CCC(=O)O)NC1=O` (H-Y[Dab]FLE; lactam 2-C (inferred); N-terminus assumed): in test [1] ((3H)-DAMGO binding), the “Bmax (binding capacity)” value is given as 18.6 pmol.

By Ki is commonly meant a measure of affinity in units of concentration, obtained from inhibition or displacement. High values mean weaker binding, low ones tighter binding. Consider `CC(C)C[C@H](NC(=O)[C@H](CC(C)C)NC(=O)CNC(=O)[C@@H](N)Cc1ccc(O)cc1)C(=O)O` [Tyr--Gly--Leu--Leu, Tyr-Gly-Leu-Leu] (H-YGLL-OH), for which the Ki amounted to 24000 nM in test [2] and 32000 nM in test [3]. As to `CC(C)C[C@H](NC(=O)[C@H](Cc1ccccc1)NC(=O)[C@@H](C)NC(=O)[C@@H](N)Cc1ccc(O)cc1)C(=O)N[C@@H](CCC(=O)O)C(=O)O` [Tyr-D-Ala-Phe-Leu-Glu] (H-Y[dA]FLE-OH), in test [4], the “GPI-test relative activity normorphine = 1” value was 0.01. In addition, the IC50 in test [1] amounted to 0.048 nM. `CC(C)C[C@H](NC(=O)[C@H](Cc1ccccc1)NC(=O)[C@@H](C)NC(=O)[C@@H](N)Cc1ccc(O)cc1)C(N)=O` [Tyr-D-Ala-Phe-Leu-NH2, reference compound] (H-Y[dA]FL-NH2): in test [4], the “GPI-test relative activity normorphine = 1” value was determined as 0.3. Also, the concentration for half-maximal inhibition (IC50) in test [1] was found to be 0.1 nM. The matching figures for `CSCC[C@H](NC(=O)[C@H](Cc1ccccc1)NC(=O)[C@@H](C)NC(=O)[C@@H](N)Cc1ccc(O)cc1)C(N)=O` [Tyr-D-Ala-Phe-Met-NH2, reference compound] (H-Y[dA]FM-NH2): 0.5 and 0.15 nM.

YPFLE [Tyr-Pro-Phe-Leu-Glu]: the “GPI-test relative activity normorphine = 1” value in test [4] was 0.01. In test [1], this compound registered an IC50 of 0.024 nM. “YPFVE [Tyr--Pro--Phe--Val--Glu, Tyr-Pro-Phe-Val-Glu, reference compound]”: in test [3], the affinity, expressed as Ki, was 8900 nM. With YSFLE-NH2 [Tyr-Ser-Phe-Leu-Glu-NH2], in test [1], the IC50 came to 2.6 nM.

Values taken from patent publication US5872097A, “Oligopeptides with affinity to opioid receptors” (Pharmacia & Upjohn Aktiebolag, priority 1992, dated 1999).
